Test results from patent US5961482A, “Iontotherapeutic device and process and iontotherapeutic unit dose” (Rutgers, The State University Of New Jersey, priority 1996, dated 1999).
Structures can show the parent of a compound that is named as a salt. Where two headings read alike, the source gives them in different places.

Key:
[1] = for Tlag: printed beside pH 4.0 value
[2] = for Cumulative Amount of Drug Absorbed: donor 6.2 mg/ml pH 9.0, 37° C.
[3] = In vitro skin permeation of insulin, Valia-Chien cell, I^125-insulin scintillation counting; format: in vitro ADME, hairless rat; conditions: for Skin Permeation Rate: 5.3 IU/ml, pH 7.1
Method: (§1) An aqueous solution of insulin (5.3 IU/ml containing 0.3 mcCi of I^125 -insulin) is prepared and adjusted to pH 7.1 using NaOH. An aliquot of 3.5 ml of this insulin solution is filled into the refillable dosage unit having a microporous membrane as the drug-releasing surface. The dosage unit is then assembled as a part of the pharmaceutical reservoir electrode of the iontotherapeutic device and membrane surface thereof is applied to the stratum corneum side of hairless rat skin mounted in the Valia-Chien skin permeation cell at 37° C. Samples are withdrawn at regular time intervals and radioactivity is measured by scintillation counter to determine the amount of insulin which has been transdermally absorbed.
as §1, with “pH 3.7, 5.2 or” for “pH”, “either HCl or NaOH solution.” for “NaOH.”, “radio-activity” for “radioactivity”

[4] = tested on: blood glucose level (B.G.L.) in the diabetic hairless rats; experiment: Reduction in blood glucose level in diabetic hairless rats; format: in vivo
Method: An aqueous solution of insulin at a concentration of 250 IU/ml is prepared by dissolving 193.8 mg (25.8 IU/mg) of pure porcine insulin in 20 ml of citrate buffer at pH 3.6. Two ml of the insulin solution so prepared is filled into a refillable dosage unit having a microporous membrane as the drug-releasing surface. This insulin-containing reservoir-type dosage unit is then assembled as a part of the pharmaceutical reservoir electrode of the iontotherapeutic device and applied successively on the abdominal skin of 9 diabetic hairless rats with the transdermal periodic iontotherapeutic system operating at 1 mA with square waveform mode to study the effect of frequency, on/off ratio and treatment duration on the reduction of blood glucose level. The results are shown and compared, respectively, in FIGS. 16, 17 and 18.
The same insulin solution is prepared in the same way as in Example 1, except that a phosphate buffer at pH 7.1 is used to replace the double-distilled water. Two ml of the insulin solution so prepared is filled into a refillable dosage unit having a microporous membrane as the drug-releasing surface. This unit dose is applied to 3 diabetic hairless rats following the same operation procedures as in Example 3 to study the effect of treatment duration on the reduction of blood glucose level.
(§2) An aqueous buffer solution of insulin (250 IU/ml) is prepared in citrate-phosphate buffer at pH 3.68. An aliquot of 2.5 ml of this insulin solution is filled into the refillable dosage unit having a microporous membrane as the drug-releasing surface. The dosage unit is then assembled as a part of the pharmaceutical reservoir electrode of the iontotherapeutic device and membrane surface thereof is applied to the skin at abdominal region of 3 groups of anaesthetized, diabetic hairless rats. Blood samples are withdrawn at regular time intervals and glucose levels are measured by glucose analyzer. The reduction in glucose level from hyperglycemic state is the pharmacodynamic responses to the insulin absorbed transdermally.
as §2, with “5” for “3 groups of”

[5] = Plasma immunoreactive insulin concentration in diabetic rabbits by radioimmunoassay; format: in vivo; conditions: TPIS 1 mA, 500 IU/ml pH 7.10
Method: (§3) An aqueous solution of insulin (500 IU/ml) at pH 7.10 is used. An aliquot of 2.5 ml of this insulin solution is filled into the refillable dosage unit having a microporous membrane as the drug-releasing surface. The dosage unit is then assembled as a part of the pharmaceutical reservoir electrode of the iontotherapeutic device and membrane surface thereof is applied to the skin at dorsal region of 3 diabetic rabbits. Blood samples are withdrawn at regular time intervals and analyzed for immunoreactive insulin concentration by radioimmunoassay and for glucose levels by glucose analyzer. The reduction in glucose level from hyperglycemic state is the pharmacodynamic responses to the insulin transdermally absorbed.
An aqueous solution of insulin (500 IU/ml) at pH 7.10 is used. An aliquot of 2.5 ml of this insulin solution is filled into the refillable dosage unit having a microporous membrane as the drug-releasing surface. The dosage unit is then assembled as a part of the pharmaceutical reservoir electrode of the iontotherapeutic device and membrane surface thereof is applied to the abdominal skin of 2 groups of diabetic rabbits. Blood samples are withdrawn at regular time intervals and analyzed for immunoreactive insulin concentration by radioimmunoassay and for glucose levels by glucose analyzer. […]

[6] = tested on: blood glucose level (B.G.L.) in diabetic rabbits; experiment: Reduction of blood glucose levels in diabetic rabbits by glucose analyzer; format: in vivo
Method: as §3
An aqueous solution of insulin (500 IU/ml) at pH 7.10 is used. An aliquot of 2.5 ml of this insulin solution is filled into the refillable dosage unit having a microporous membrane as the drug-releasing surface. The dosage unit is then assembled as a part of the pharmaceutical reservoir electrode of the iontotherapeutic device and membrane surface thereof is applied to the abdominal skin of 2 groups of diabetic rabbits. Blood samples are withdrawn at regular time intervals and analyzed for immunoreactive insulin concentration by radioimmunoassay and for glucose levels by glucose analyzer. The reduction in glucose level from hyperglycemic state is the pharmacodynamic responses to the insulin transdermally absorbed.

## COc1ccc2c3c1O[C@H]1C(=O)CC[C@H]4[C@@H](C2)N(C)CC[C@]314 [Hydrocodone, hydrocodone]
[1]; Control, pH 4.0
  Skin Permeation Rate: 3.10 mcg/cm^2 /hr
[1]; Control, pH 7.5, ± S.D.
  Skin Permeation Rate: 4.75 ± 1.70 mcg/cm^2 /hr
[1]; Control
  Tlag: 5.17 h
[1]; DC mode, 1 mA, 2 min hourly for 12 hours, pH 4.0
  Skin Permeation Rate: 37.5 mcg/cm^2 /hr
[1]; DC mode, 1 mA, 2 min hourly for 12 hours, pH 7.5, ± S.D.
  Skin Permeation Rate: 7.61 ± 2.74 mcg/cm^2 /hr
[1]; DC mode, 1 mA, 2 min hourly
  Tlag: 0.72 h
[1]; periodic wave mode, 2000 Hz, on/off 1/1, 1 mA
  Tlag: 0.90 h
[1]; periodic wave mode, square wave, 2000 Hz, on/off 1/1, 1 mA, 2 min hourly, pH 4.0
  Skin Permeation Rate: 59.4 mcg/cm^2 /hr
[1]; periodic wave mode, square wave, 2000 Hz, on/off 1/1, 1 mA, 2 min hourly, pH 7.5, ± S.D.
  Skin Permeation Rate: 7.01 ± 1.16 mcg/cm^2 /hr

## COc1ccc2c(c1)c(CC(=O)O)c(C)n2C(=O)c1ccc(Cl)cc1 [Indomethacin, indomethacin]
[2]; No TPIS, pH 5.5
  Skin Permeation Rate: 1.47 mcg/cm^2 /hr
[2]; With TPIS (1.2 mA, 5 min/hr for 7 hours, 2000 Hz, square, on/off 2/1), pH 2.5
  Skin Permeation Rate: 0.76 mcg/cm^2 /hr
[2]; With TPIS (1.2 mA, 5 min/hr for 7 hours, 2000 Hz, square, on/off 2/1), pH 4.5
  Skin Permeation Rate: 0.44 mcg/cm^2 /hr
[2]; With TPIS (1.2 mA, 5 min/hr for 7 hours, 2000 Hz, square, on/off 2/1), pH 5.5
  Skin Permeation Rate: 6.30 mcg/cm^2 /hr

## CN(C)[C@@H]1C(=O)C(C(N)=O)=C(O)[C@@]2(O)C(=O)C3=C(O)c4c(O)cccc4[C@@](C)(O)[C@H]3C[C@@H]12 [Tetracycline HCl, tetracycline HCl]
[2]; No TPIS, 1.25 hrs
  Cumulative Amount of Drug Absorbed: 0.0180 mcg/cm^2
[2]; No TPIS, 2.25 hrs
  Cumulative Amount of Drug Absorbed: 0.0550 mcg/cm^2
[2]; No TPIS, 3.25 hrs
  Cumulative Amount of Drug Absorbed: 0.0650 mcg/cm^2
[2]; No TPIS, 4.25 hrs
  Cumulative Amount of Drug Absorbed: 0.1450 mcg/cm^2
[2]; No TPIS, 5.25 hrs
  Cumulative Amount of Drug Absorbed: 0.3040 mcg/cm^2
[2]; With TPIS (1 mA, 10 min/hr, 2000 Hz, square, on/off 4/1), 1.25 hrs
  Cumulative Amount of Drug Absorbed: 0.1765 mcg/cm^2
[2]; With TPIS (1 mA, 10 min/hr, 2000 Hz, square, on/off 4/1), 2.25 hrs
  Cumulative Amount of Drug Absorbed: 0.2555 mcg/cm^2
[2]; With TPIS (1 mA, 10 min/hr, 2000 Hz, square, on/off 4/1), 3.25 hrs
  Cumulative Amount of Drug Absorbed: 0.7815 mcg/cm^2
[2]; With TPIS (1 mA, 10 min/hr, 2000 Hz, square, on/off 4/1), 4.25 hrs
  Cumulative Amount of Drug Absorbed: 1.3235 mcg/cm^2
[2]; With TPIS (1 mA, 10 min/hr, 2000 Hz, square, on/off 4/1), 5.25 hrs
  Cumulative Amount of Drug Absorbed: 3.5600 mcg/cm^2

## insulin
[3]; TIDD 1 mA, 0 Hz, 5 min per 60 min for 7 hrs
  Skin Permeation Rate: 37.5 (±4.5) mcIU/cm^2 /hr
[3]; lower pH solution (pH 3.7) vs pH 5.2 and 7.1
  increase in TPIS-facilitated skin permeability, pH dependence: greater increase
[3]; no iontotherapy, 48 hours
  Skin Permeation Rate: 3.94±0.29 mcIU/cm^2 /hr
[4]; TPIS 1 mA, 2 KHz, on/off 1/1, 40 min, 250 IU/ml pH 3.68, waveforms compared
  blood glucose levels: reduced substantially
[4]; TPIS 1 mA, 2 KHz, square, on/off 1/1, 40 min, 250 IU/ml pH 3.68, Day 1
  blood glucose levels, Day 1: reduced substantially
[4]; TPIS 1 mA, on/off 1/1, 1000 Hz, pH 7.1
  reduction of blood glucose level, effect of treatment duration: difference in the rate and the duration, but with equal effectiveness
[4]; TPIS 1 mA, on/off 8/1, 2000 Hz, pH 3.6
  reduction of blood glucose level, effect of treatment duration 20-40 minutes: equally effective
[4]; TPIS 1 mA, square waveform, frequency of 2000 Hz vs 1000 Hz, pH 3.6
  reduction of blood glucose level, 2000 Hz vs 1000 Hz: greater magnitude and a longer duration of reduction
[4]; TPIS on Day 3 with no insulin in electrode, after insulin delivered on Day 1 (skin depot)
  blood glucose, Day 3: also reduced
[5]; 2 KHz, on/off 1/1, square, 40 min, dorsal skin
  plasma immunoreactive insulin concentration: increases rapidly
[5]; 40 min vs TIDD 4 mA, 80 min, abdominal skin
  plasma immunoreactive insulin concentration, TPIS vs TIDD: increases more rapidly
[6]; TIDD (4× current, 2× administration time), pH 7.10
  reduction of blood glucose level by TIDD: lower than the normoglycemic level
[6]; TPIS 1 mA, 2 KHz, on/off 1/1, square, 40 min, 500 IU/ml pH 7.10, dorsal skin
  blood glucose levels: reduced substantially
[6]; TPIS 1 mA, 40 min vs TIDD 4 mA, 80 min, 500 IU/ml pH 7.10, abdominal skin
  blood glucose levels, TPIS vs TIDD: reduced more instantaneously
[6]; TPIS, from hyperglycemic level, pH 7.10
  reduction of blood glucose level by TPIS: near instantaneous reduction
[6]; TPIS, pH 7.1, compared with subcutaneous administration
  blood glucose level control by TPIS vs SC: controlled at a highly constant level
